Measurements taken from patent US12441736B2, “KIF18A inhibitors” (AMGEN INC., priority 2018, dated 2025).

target: T1, Recombinant human KIF18A (1-467 His-tagged) protein (Homo sapiens, UniProt Q8NI77); experiment: KIF18A Enzyme Assay: microtubule-stimulated ATPase activity (ADP-Glo); assay type: biochemical; conditions: 30 nM KIF18A, 30 μg/mL pig microtubules, 75 μM ATP, ADP-Glo luminescence
T1 construct: Recombinant human KIF18A (1-467 His-tagged) protein; His; made in house
Excerpt: KIF18A Enzyme Assay: Microtubule-stimulated ATPase activity assay is used to measure KIF18A enzyme activity after treatment with compound. Compounds were 2-fold serially diluted in DMSO (Sigma Inc) over 22-point concentration range. Recombinant human KIF18A (1-467 His-tagged) protein was expressed using a baculovirus system and purified by affinity chromatography by Amgen Inc. Concentrations of KIF18A protein, microtubules (MT), and ATP in the reaction were optimized for standardized homogenous enzyme assay using ADP-Glo™ Kinase/ATPase Assay Kit (Promega Inc). The assay measures ADP formed from the ATPase reaction. Prepare reaction buffer [(15 mM Tris, pH 7.5 (Teknova Inc), 10 mM MgCl2 (IT Baker Inc), 0.01% Pluronic F-68 (Life Technologies Inc), 1 μM Taxol (Cytoskeleton Inc), and 30 μg/mL pig microtubules (Cytoskeleton Inc)]. Add compound and KIF18A protein (30 nM) to prepared reaction buffer and incubated for 15 minutes at room temperature, next add ATP (at Kin, 75 μM) to the reaction mixture and incubated for an additional 15 minutes at room temperature. Mix 5 μl of ADP-Glo™ Reagent and 2.5 μl of the reaction mixture and incubate for 40 minutes at room temperature. Add 10 μl ADP-Glo™ Detection Reagent and incubate for 40 minutes at room temperature. Read luminescence using EnVision microplate reader with ultra-luminescence module (Perkin Elmer Inc). Concentration-response curve-fitting and IC50 determination was performed using Genedata Screener Software (Standard 15.0.1, Genedata Inc) with a four-parameter logistic regression fit model.
Table A provides data for compounds exemplified in the present application and priority document thereof, as representative compounds of the present invention, as follows: chemical name (as named by either ACD software or ChemDraw (Professional 15.0)) and biological data (IC50 in μM). Ex. # refers to Example No.

T1 sequence (Q8NI77 1-467): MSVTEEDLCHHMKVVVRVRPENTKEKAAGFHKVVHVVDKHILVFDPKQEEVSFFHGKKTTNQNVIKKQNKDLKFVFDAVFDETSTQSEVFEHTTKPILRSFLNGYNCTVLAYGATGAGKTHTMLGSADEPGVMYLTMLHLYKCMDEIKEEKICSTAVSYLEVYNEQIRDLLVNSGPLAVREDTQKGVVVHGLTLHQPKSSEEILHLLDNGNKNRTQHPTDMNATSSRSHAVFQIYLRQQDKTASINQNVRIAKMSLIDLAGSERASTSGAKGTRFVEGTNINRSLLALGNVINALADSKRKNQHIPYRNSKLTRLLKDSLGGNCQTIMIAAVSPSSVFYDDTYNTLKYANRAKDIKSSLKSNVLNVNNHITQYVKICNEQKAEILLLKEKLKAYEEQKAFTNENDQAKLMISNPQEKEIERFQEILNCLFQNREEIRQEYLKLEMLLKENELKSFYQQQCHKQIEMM
T1 sequence (P02550 whole entry partner): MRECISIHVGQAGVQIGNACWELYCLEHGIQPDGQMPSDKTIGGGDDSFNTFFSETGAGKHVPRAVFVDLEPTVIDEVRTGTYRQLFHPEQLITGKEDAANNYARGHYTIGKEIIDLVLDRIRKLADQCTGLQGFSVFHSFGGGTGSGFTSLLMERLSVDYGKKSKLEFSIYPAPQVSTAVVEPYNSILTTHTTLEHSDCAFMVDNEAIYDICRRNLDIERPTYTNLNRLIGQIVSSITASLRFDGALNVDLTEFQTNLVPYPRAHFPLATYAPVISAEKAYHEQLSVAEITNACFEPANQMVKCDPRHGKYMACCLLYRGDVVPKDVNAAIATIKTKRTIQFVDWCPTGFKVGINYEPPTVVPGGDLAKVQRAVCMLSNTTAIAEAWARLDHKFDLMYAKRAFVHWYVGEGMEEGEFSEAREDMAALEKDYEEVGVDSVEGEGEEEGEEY
T1 sequence (P02554 whole entry partner): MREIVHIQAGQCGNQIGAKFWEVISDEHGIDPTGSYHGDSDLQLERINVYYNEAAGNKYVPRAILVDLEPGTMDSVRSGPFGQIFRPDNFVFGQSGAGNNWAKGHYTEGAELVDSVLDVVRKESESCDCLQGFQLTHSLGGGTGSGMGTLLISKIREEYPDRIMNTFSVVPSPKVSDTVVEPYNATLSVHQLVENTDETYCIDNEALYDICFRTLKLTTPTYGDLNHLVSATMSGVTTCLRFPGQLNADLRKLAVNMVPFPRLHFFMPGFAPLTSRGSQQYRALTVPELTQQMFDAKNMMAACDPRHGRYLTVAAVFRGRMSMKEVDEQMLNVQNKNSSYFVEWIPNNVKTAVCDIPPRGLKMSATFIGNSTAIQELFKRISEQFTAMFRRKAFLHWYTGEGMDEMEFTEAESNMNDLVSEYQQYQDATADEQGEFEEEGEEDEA

Structure (SMILES)	IC50
CC1(C)CC(=O)N(c2cccc(NC(=O)c3ncc(NC(C)(C)CO)nc3N3CCC4(CC3)CC4)n2)C1 [Example 107, 3-(6-azaspiro[2.5]oct-6-yl)-N-(6-(4,4-dimethyl-2-oxo-1-pyrrolidinyl)-2-pyridinyl)-5-((1-hydroxy-2-methyl-2-propanyl)amino)-2-pyrazinecarboxamide]	111 nM
Cc1cc(NC(=O)c2ccc(NC(C)(C)CO)nc2N2CCC3(CC2)CC3)nc(S(=O)(=O)NC(C)(C)C)c1 [Example 157, 2-(6-azaspiro[2.5]octan-6-yl)-6-((1-hydroxy-2-methyl-2-propanyl)amino)-N-(4-methyl-6-((2-methyl-2-propanyl)sulfamoyl)-2-pyridinyl)-3-pyridinecarboxamide]	206 nM
C[C@@H]1CN(c2cccc(NC(=O)c3ccc(OCCC(C)(C)N)nc3N3CCC4(CC3)CC4)n2)CCO1 [Example 209, 6-(3-amino-3-methylbutoxy)-2-(6-azaspiro[2.5]octan-6-yl)-N-(6-((2R)-2-methyl-4-morpholinyl)-2-pyridinyl)-3-pyridinecarboxamide]	411 nM
Cc1cc(NC(=O)c2ncc(NC(C)(C)CO)nc2N2CCC3(CC2)CC3)nc(N2CCOCC2)c1 [Example 114, 3-(6-azaspiro[2.5]octan-6-yl)-5-((1-hydroxy-2-methyl-2-propanyl)amino)-N-(4-methyl-6-(4-morpholinyl)-2-pyridinyl)-2-pyrazinecarboxamide]	178 nM
CC(C)(C)NS(=O)(=O)c1cccc(NC(=O)c2ccc([C@@](C)(O)CO)nc2N2CCC3(CC2)CC3)n1 (single isomer, unassigned) [Example 178]	109 nM
O=C(Nc1cccc(N2CCC[C@@H](O)C2)n1)c1ccc(C(O)(CO)C(F)(F)F)nc1N1CCC2(CC1)CC2 (stereo partly drawn) [Example 242, N-(6-((R)-3-hydroxypiperidin-l-yl)pyridin-2-yl)-2-(6-azaspiro[2.5]octan-6-yl)-6-(1,1,1-trifluoro-2,3-dihydroxypropan-2-yl)nicotinamide]	78.1 nM
CC(C)(C)NS(=O)(=O)c1cccc(NC(=O)c2ccc(C(C)(O)CO)nc2N2CCC3(CC2)CC3)n1 (centres unmarked) [Example 169, N-(6-(N-(tert-butyl)sulfamoyl)pyridin-2-yl)-6-(1,2-dihydroxypropan-2-yl)-2-(6-azaspiro[2.5]octan-6-yl)nicotinamide]	89.3 nM
CS(=O)(=O)Cc1ccc(C(=O)Nc2cccc(N3CCC[C@@H](O)C3)n2)c(N2CCC3(CC2)CC3)n1 [Example 241, 2-(6-azaspiro[2.5]octan-6-yl)-N-(6-((3R)-3-hydroxy-1-piperidinyl)-2-pyridinyl)-6-((methylsulfonyl)methyl)-3-pyridinecarboxamide]	101 nM
CC1(C)OCC(c2ccc(C(=O)Nc3cccc(N4CCOCC4)n3)c(N3CCC4(CC3)CC4)n2)(C(F)(F)F)O1 (centres unmarked) [Example 180, 6-(2,2-dimethyl-4-(trifluoromethyl)-1,3-dioxolan-4-yl)-N-(6-morpholinopyridin-2-yl)-2-(6-azaspiro[2.5]octan-6-yl)nicotinamide]	758 nM
COC(=O)C(F)(C(=O)OC)c1ccc(C(=O)Nc2cccc(N3CCO[C@H](C)C3)n2)c(N2CCC3(CC2)CC3)n1 [Example 198, dimethyl (6-(6-azaspiro[2.5]octan-6-yl)-5-((6-((2R)-2-methyl-4-morpholinyl)-2-pyridinyl)carbamoyl)-2-pyridinyl)(fluoro)propanedioate]	156 nM
CC(C)(C)NS(=O)(=O)c1cccc(NC(=O)c2ncc(NC(C)(C)CO)nc2N2CCC3(CC2)CC3)n1 [Example 102, N-(6-(N-(tert-butyl)sulfamoyl)pyridin-2-yl)-5-((1-hydroxy-2-methylpropan-2-yl)amino)-3-(6-azaspiro[2.5]octan-6-yl)pyrazine-2-carboxamide]	75.3 nM
CC(C)(CO)Nc1ccc(C(=O)Nc2cccc(-c3ncco3)n2)c(N2CCC3(CC2)CC3)n1 [Example 122, 2-(6-azaspiro[2.5]oct-6-yl)-6-((2-hydroxy-1,1-dimethylethyl)amino)-N-(6-(1,3-oxazol-2-yl)-2-pyridinyl)-3-pyridinecarboxamide]	316 nM
CC(C)(CO)Nc1ccc(C(=O)Nc2cc(C#N)cc(N3CCOCC3)n2)c(N2CCC3(CC2)CC3)n1 [Example 156, 2-(6-azaspiro[2.5]octan-6-yl)-N-(4-cyano-6-(4-morpholinyl)-2-pyridinyl)-6-((1-hydroxy-2-methyl-2-propanyl)amino)-3-pyridinecarboxamide]	116 nM
CC(CO)(CO)Nc1cnc(C(=O)Nc2cccc(N3CCOCC3)n2)c(N2CCC3(CC2)CC3)n1 [Example 115, 3-(6-azaspiro[2.5]octan-6-yl)-5-((1,3-dihydroxy-2-methyl-2-propanyl)amino)-N-(6-(4-morpholinyl)-2-pyridinyl)-2-pyrazinecarboxamide]	106 nM

Continued, values first:

IC50	Structure (SMILES)
68.8 nM	C[C@@H]1CN(c2cccc(NC(=O)c3ccc(S(N)(=O)=O)nc3N3CCC4(CC3)CC4)n2)CCO1 [Example 224, 2-(6-azaspiro[2.5]octan-6-yl)-N-(6-((2R)-2-methyl-4-morpholinyl)-2-pyridinyl)-6-sulfamoyl-3-pyridinecarboxamide]
999 nM	CNC1CCCN(c2cccc(NC(=O)c3ccc(NC(C)(C)CO)nc3N3CCC4(CC3)CC4)n2)C1 (centres unmarked) [Example 233, 6-((1-hydroxy-2-methylpropan-2-yl)amino)-N-(6-(3-(methylamino)piperidin-1-yl)pyridin-2-yl)-2-(6-azaspiro[2.5]octan-6-yl)nicotinamide]
68.1 nM	C[C@@H]1CN(c2cccc(NC(=O)c3ccc(CS(C)(=O)=O)nc3N3CCC4(CC3)CC4)n2)CCO1 [Example 239, 2-(6-azaspiro[2.5]octan-6-yl)-N-(6-((2R)-2-methyl-4-morpholinyl)-2-pyridinyl)-6-((methylsulfonyl)methyl)-3-pyridinecarboxamide]
357 nM	CC(C)(CO)Nc1ccc(C(=O)Nc2cccc(N3CCOC(CN)C3)n2)c(N2CCC3(CC2)CC3)n1 (centres unmarked) [Example 235, N-(6-(2-(aminomethyl)morpholino)pyridin-2-yl)-6-((1-hydroxy-2-methylpropan-2-yl)amino)-2-(6-azaspiro[2.5]octan-6-yl)nicotinamide]
79.5 nM	C[C@@H]1CN(c2cccc(NC(=O)c3ccc(C(O)(CO)C(F)(F)F)nc3N3CCC4(CC3)CC4)n2)CCO1 (stereo partly drawn) [Example 182, N-(6-((R)-2-methylmorpholino)pyridin-2-yl)-2-(6-azaspiro[2.5]octan-6-yl)-6-(1,1,1-trifluoro-2,3-dihydroxypropan-2-yl)nicotinamide]
239 nM	CC(C)(CCO)Nc1ccc(C(=O)Nc2cccc(N3CCO[C@H](CO)C3)n2)c(N2CCC3(CC2)CC3)n1 [Example 210, 2-(6-azaspiro[2.5]octan-6-yl)-6-((4-hydroxy-2-methyl-2-butanyl)amino)-N-(6-((2S)-2-(hydroxymethyl)-4-morpholinyl)-2-pyridinyl)-3-pyridinecarboxamide]
160 nM	CCC1CN(c2cccc(NC(=O)c3ccc(NC(C)(C)CO)nc3N3CCC4(CC3)CC4)n2)CCO1 (centres unmarked) [Example 204, N-(6-(2-ethylmorpholino)pyridin-2-yl)-6-((1-hydroxy-2-methylpropan-2-yl)amino)-2-(6-azaspiro[2.5]octan-6-yl)nicotinamide]
440 nM	C[C@@H]1CN(c2cccc(NC(=O)c3cnc(NC(C)(C)CO)cc3N3CCC4(CC3)CC4)n2)CCO1 [Example 243, (R)-6-((1-hydroxy-2-methylpropan-2-yl)amino)-N-(6-(2-methylmorpholino)pyridin-2-yl)-4-(6-azaspiro[2.5]octan-6-yl)nicotinamide]
90.5 nM	CC(C)(CO)Nc1ccc(C(=O)Nc2cccc(N3C[C@@H]4C[C@H]3CO4)n2)c(N2CCC3(CC2)CC3)n1 (racemic) [Example 151, N-(6-((1S,4S)-2-oxa-5-azabicyclo[2.2.1]heptan-5-yl)pyridin-2-yl)-6-((1-hydroxy-2-methylpropan-2-yl)amino)-2-(6-azaspiro[2.5]octan-6-yl)nicotinamide]
170 nM	C[C@@H]1CN(c2cccc(NC(=O)c3ccc(NC(C)(C)CCO)nc3N3CCC4(CC3)CC4)n2)CCO1 [Example 214, 2-(6-azaspiro[2.5]octan-6-yl)-6-((4-hydroxy-2-methyl-2-butanyl)amino)-N-(6-((2R)-2-methyl-4-morpholinyl)-2-pyridinyl)-3-pyridinecarboxamide]
407 nM	COC1CCN(c2cccc(NC(=O)c3ccc(NC(C)(C)CO)nc3N3CCC4(CC3)CC4)n2)C1 (stereo not drawn) [Example 124, 6-((1-hydroxy-2-methylpropan-2-yl)amino)-N-(6-(3-methoxypyrrolidin-l-yl)pyridin-2-yl)-2-(6-azaspiro[2.5]octan-6-yl)nicotinamide]
523 nM	C[C@@H]1CN(c2cccc(NC(=O)c3ccc(N4CC(O)CC4(C)C)nc3N3CCC4(CC3)CC4)n2)CCO1 (stereo partly drawn) [Example 213, 6-(4-hydroxy-2,2-dimethylpyrrolidin-1-yl)-N-(6-((R)-2-methylmorpholino)pyridin-2-yl)-2-(6-azaspiro[2.5]octan-6-yl)nicotinamide]
